Results from patent publication US20030055244A1, “Pyridyl-containing spirocyclic compounds as inhibitors of fibrinogen-dependent platelet aggregation” (priority 1999, published 2003).
Read-outs that look alike come from different tables or passages of the source.

Legend:
[1] = test system: human platelet-rich plasma; assay: Platelet aggregation assay (Aggregation-Human PRP/ADP); type: cell-based
Protocol: Platelet-rich plasma was prepared from healthy human volunteers for use in determining inhibition of platelet aggregation by the compounds.
Platelet-rich plasma was prepared at room temperature by centrifugation of the citrated whole blood at 100 × g for twelve minutes. The platelet rich plasma contained approximately 200-400,000 platelets/μl.
Platelet aggregation was assayed in a 4-channel platelet aggregation profiler (PAP-4, Biodata, Hatboro, Pa.) according to the manufacturers directions. Inhibition of platelet aggregation was studied by adding varying amounts of adenosine diphosphate (ADP) to stirred human platelet-rich plasma. Specifically, the human platelet-rich plasma was incubated with the compound being tested for 1 minute at 37° C. prior to the addition of a variety of aggregating agents most often ADP 5 μM to 20 μM, but also 1 μg/ml collagen, 1 μM U46619 and 0.3 μM platelet activating factor.

GPIIb-IIIa = target: T1, GPIIb-IIIa (Homo sapiens, UniProt P05106+P08514); assay: ELISA IIb-IIIa assay (fibrinogen binding to immobilized purified GPIIb-IIIa); details: inhibition of fibrinogen binding to purified GPIIb-IIIa
T1 construct: Purified platelet GPIIb-IIIa receptor was prepared as described by Fitzgerald; from tissue; host or cells: platelets
Protocol: No. 1 - The ELISA IIb-IIIa Assay
PIIb-IIIa is coated onto microtiter plates. The coated support is then contacted with fibrinogen and with the test material (e.g., compounds of Formula I) and incubated for a sufficient time to permit maximal binding of fibrinogen to the immobilized GPIIb- Ila. Fibrinogen is typically provided at a concentration of about 5-50 nM and the test material can, if desired, be added at a series of dilution. Typical incubations are 2 to 4 hours at 25° C., the time and temperature being interdependent.
After incubation, the solution containing the fibrinogen and test material is removed and the level of binding of fibrinogen measured by quantitating bound fibrinogen to GPIIb-IIIa. Any suitable means of detection may be used, but it is convenient to employ labeled fibrinogen, for example using biotinylated labels. Such methods are well known in the art.
A. Description of Assays—Plate Assays
After purification, the receptors were stored in 0.1% Triton X-100 at 0.1-1.0 mg/ml.
The receptors were coated to the wells of 96-well flat-bottom ELISA plates (Linbro EIA-Plus microtiter plate, Flow Laboratories) after diluting 1:200 with a solution of 20 mM Tris-HCl, 150 mM NaCl, 1 mM CaCl2, pH 7.4, to reduce the Triton X-100 concentration to below its critical micellar concentration and adding an aliquot of 100 ul to each well. The wells were all allowed to incubate overnight at 4° C., and then aspirated to dryness. Additional sites were blocked by the addition of bovine serum albumin (BSA) at 35 mg/ml in the above buffer for two hours at 30° C. to prevent nonspecific binding. The wells were then washed once with binding buffer ([…] Tris-HCl, 100 mM NaCl 2 mM CaCl2, 1 mg/ml BSA).
The corresponding ligands (fibrinogen, von Willebrand Factor, or vitronectin) were conjugated to biotin using commercially available reagents and standard protocols. The labeled ligands were added to the receptor-coated wells at final concentration of 10 nM (100 ul/well) and incubated for 3 hours at 25° C. in the presence or absence of the test samples. After incubation, the wells are aspirated to dryness and bound ligand is quantitated.
Decreased color development is observed in wells incubated with test samples which inhibit binding of ligand to receptor.

[2] = read-out: PRP (ADP-Citrate) IC50

T1 sequence (P08514 32-887 limits assumed): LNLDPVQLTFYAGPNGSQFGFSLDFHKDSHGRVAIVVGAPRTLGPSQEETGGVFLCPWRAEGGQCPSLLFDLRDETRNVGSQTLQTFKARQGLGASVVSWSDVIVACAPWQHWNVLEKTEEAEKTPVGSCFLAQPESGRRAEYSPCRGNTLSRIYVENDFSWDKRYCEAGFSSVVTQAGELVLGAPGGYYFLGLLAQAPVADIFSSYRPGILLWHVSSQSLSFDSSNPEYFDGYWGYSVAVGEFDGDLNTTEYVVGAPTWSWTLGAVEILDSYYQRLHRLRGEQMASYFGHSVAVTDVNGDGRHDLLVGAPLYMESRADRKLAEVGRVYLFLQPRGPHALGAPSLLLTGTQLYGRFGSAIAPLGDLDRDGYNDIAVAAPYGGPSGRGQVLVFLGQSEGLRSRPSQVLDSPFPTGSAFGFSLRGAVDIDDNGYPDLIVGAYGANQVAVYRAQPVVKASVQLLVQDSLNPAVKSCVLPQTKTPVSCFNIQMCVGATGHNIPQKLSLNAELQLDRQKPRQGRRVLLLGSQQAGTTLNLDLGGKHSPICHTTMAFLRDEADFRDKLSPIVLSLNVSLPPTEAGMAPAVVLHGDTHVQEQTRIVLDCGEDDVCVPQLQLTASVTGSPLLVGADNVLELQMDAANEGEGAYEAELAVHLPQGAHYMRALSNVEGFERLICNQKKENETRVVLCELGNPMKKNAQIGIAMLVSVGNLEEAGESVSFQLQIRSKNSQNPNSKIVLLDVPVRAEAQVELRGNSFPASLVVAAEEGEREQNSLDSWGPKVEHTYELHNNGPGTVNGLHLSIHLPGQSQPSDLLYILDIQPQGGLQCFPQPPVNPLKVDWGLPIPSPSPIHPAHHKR
T1 sequence (P08514 891-1039 limits assumed): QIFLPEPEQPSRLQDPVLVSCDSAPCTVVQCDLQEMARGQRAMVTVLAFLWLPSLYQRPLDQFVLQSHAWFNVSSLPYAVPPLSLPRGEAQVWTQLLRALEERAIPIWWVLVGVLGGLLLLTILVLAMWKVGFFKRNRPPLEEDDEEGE
T1 sequence (P05106 27-788): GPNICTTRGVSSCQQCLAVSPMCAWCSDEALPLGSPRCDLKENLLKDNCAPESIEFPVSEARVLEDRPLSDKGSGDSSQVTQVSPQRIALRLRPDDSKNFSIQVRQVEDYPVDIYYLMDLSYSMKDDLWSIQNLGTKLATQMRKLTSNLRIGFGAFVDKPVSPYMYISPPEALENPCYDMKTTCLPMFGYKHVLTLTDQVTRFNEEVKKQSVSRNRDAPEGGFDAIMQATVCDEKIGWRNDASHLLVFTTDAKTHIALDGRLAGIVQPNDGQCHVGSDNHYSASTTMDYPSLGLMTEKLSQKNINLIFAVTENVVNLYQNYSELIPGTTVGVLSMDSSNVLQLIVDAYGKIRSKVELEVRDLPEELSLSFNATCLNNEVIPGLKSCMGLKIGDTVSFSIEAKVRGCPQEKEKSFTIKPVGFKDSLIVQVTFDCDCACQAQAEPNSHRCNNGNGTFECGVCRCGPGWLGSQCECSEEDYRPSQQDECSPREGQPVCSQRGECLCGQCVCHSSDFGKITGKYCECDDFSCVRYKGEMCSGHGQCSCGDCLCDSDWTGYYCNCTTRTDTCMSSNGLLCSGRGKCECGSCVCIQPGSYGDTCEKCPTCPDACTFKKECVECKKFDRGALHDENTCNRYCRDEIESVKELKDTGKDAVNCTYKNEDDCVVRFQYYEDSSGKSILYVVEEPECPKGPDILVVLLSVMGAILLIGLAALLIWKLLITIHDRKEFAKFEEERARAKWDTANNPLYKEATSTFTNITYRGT

SMILES	IC50 ([1]; read-out: PRP IC50) [nM]	IC50 (GPIIb-IIIa) [nM]	IC50 [1, 2] [nM]	IC50 ([1]; read-out: PRP (ADP) IC50) [nM]
O=C(N[C@@H](CCC(=O)N1CCC2(CC1)CCN(c1ccncc1)CC2)C(=O)O)OCc1ccccc1 [Example 5, 2(S)-2-{[(benzyloxy)carbonyl]amino}-5-oxo-5-[9-(4-pyridyl)-3,9-diazaspiro [5.5]undec-3-yl]pentanoic acid]	4600	7		
O=C(O)CCCCCC(=O)N1CCC2(CCN(c3ccncc3)CC2)C1 [Example 24, 7-oxo-7-(8-(4-pyridyl)-2,8-diazaspiro[4.5]dec-2-yl)heptanoic acid]		16	1300	
O=C(O)CC(=O)N1CCC(C(=O)N2CCC3(CCN(c4ccncc4)CC3)C2)CC1 [Example 19, 3-oxo-3-(4-{[8-(4-pyridyl)-2,8-diazaspiro[4.5]dec-2-yl]carbonyl}piperidino)propanoic acid]		28	1600	
Cc1ccc(S(=O)(=O)N[C@@H](CCC(=O)N2CCC3(CC2)CCN(c2ccncc2)CC3)C(=O)O)cc1 [Example 7, 2(S)-2-{[(4-methylphenyl)sulfonyl]amino}-5-oxo-5-[9-(4-pyridyl)-3,9-diazaspiro [5.5]undec-3-yl]pentanoic acid]	77			
O=C(O)CN1CCN(C(=O)N2CCC3(CCN(c4ccncc4)CC3)C2)CC1=O [Example 27, 2-(2-oxo-4-((8-(4-pyridyl)-2,8-diazaspiro[4.5]dec-2-yl)carbonyl)-4-piperazino) acetic acid]		35	568	
O=C(O)COC1CCN(C(=O)N2CCC3(CC2)CCN(c2ccncc2)C3)CC1 [Example 44]	3780	138		
CCCCOC(=O)N[C@@H](CCC(=O)N1CCC2(CC1)CCN(c1ccncc1)C2)C(=O)O [Example 35, (2S)-2-[(butoxycarbonyl)amino]-5-oxo-5-[2-(4-pyridyl)-2,8-diazaspiro [4.5]dec-8-yl]pentanoic acid]			4000	
O=C(O)CN1CCN(C(=O)N2CCC3(CC2)CCN(c2ccncc2)C3)CC1 [Example 41]	8920	252		
CCCCOC(=O)N[C@@H](CCC(=O)N1CCC2(CC1)CCN(c1ccncc1)CC2)C(=O)O [Example 9, 2(S)-2-[(butoxycarbonyl)amino]-5-oxo-5-[9-(4-pyridyl)-3,9-diazaspiro [5.5]undec-3-yl]pentanoic acid]	722	2		
O=C(O)CCNC(=O)N1CCC2(CC1)CCN(c1ccncc1)C2 [Example 55, 3-({[2-(4-pyridyl)-2,8-diazaspiro[4.5]dec-8-yl]carbonyl}amino)propanoic acid]		28900	34600	
O=C(O)CN1CCN(C(=O)N2CCC3(CC2)CCN(c2ccncc2)C3)CC1=O [Example 29, 2-(2-oxo-4-((2-(4-pyridyl)-2,8-diazaspiro[4.5]dec-8-yl)carbonyl)piperazino)acetic acid]		122	2650	
O=C(O)CCCCCCC(=O)N1CCC2(CCN(c3ccncc3)CC2)C1 [Example 23, 8-oxo-8-(8-(4-pyridyl)-2,8-diazaspiro[4.5]dec-2-yl)octanoic acid]		196	18700	
CC(CC(=O)O)NC(=O)C1CCC2(CC1)CCN(c1ccncc1)CC2 (stereo not shown) [Example 17, 3-({[3-(4-pyridyl)-3-azaspiro[5.5]undec-9-yl]carbonyl}amino)butanoic acid]				14800
O=C(O)COc1ccc(C(=O)N2CCC3(CC2)CCN(c2ccncc2)C3)cc1 [Example 52, 2-(4-{[2-(4-pyridyl)-2,8-diazaspiro[4.5]dec-8-yl]carbonyl}phenoxy) acetic acid]			11300	
CCCCOC(=O)N[C@@H](CNC(=O)C1CCC2(CC1)CCN(c1ccncc1)CC2)C(=O)O [Example 16, (2S)-2-{[(butyloxyl)carbonyl]amino}-3-({[3-(4-pyridyl)-3-azaspiro[5.5]undec-9-yl]carbonyl}amino)propanoic acid]				1880
O=C(O)CCN1CCN(C(=O)N2CCC3(CC2)CCN(c2ccncc2)C3)CC1=O [Example 30, 3-(2-oxo-4-((2-(4-pyridyl)-2,8-diazaspiro[4.5]dec-8-yl)carbonyl)piperazino)propanoic acid]			1290	
O=C(O)CCCCC(=O)N1CCC2(CC1)CCN(c1ccncc1)CC2 [Example 2, 6-oxo-6-(9-(4-pyridyl)-3,9-diazaspiro[5.5]undec-3-yl)hexanoic acid]	4500	258		
O=C(O)Cc1csc(NC(=O)CN2CCC3(CC2)CCN(c2ccncc2)C3)n1 [Example 54, 2-[2-({2-[2-(4-pyridyl)-2,8-diazaspiro[4.5]dec-8-yl]acetyl}amino)-1,3-thiazol-4-yl]acetic acid]		2280	32100	
CN(CC(=O)O)C1CCN(C(=O)N2CCC3(CC2)CCN(c2ccncc2)C3)CC1 [Example 46, 2-[methyl(1-{[2-(4-pyridyl)-2,8-diazaspiro[4.5]dec-8-yl]carbonyl}-4-piperidyl)amino]acetic acid]	10000			
Cc1noc(C)c1S(=O)(=O)N[C@@H](CNC(=O)N1CCC2(CC1)CCN(c1ccncc1)CC2)C(=O)O [Example 10, (2S)-2-{[(3,5-dimethyl-4-isoxazolyl)sulfonyl]amino}-3-( {[9-(4-pyridyl)-3,9-diazaspiro [5.5]undec-3-yl]carbonyl}amino)propanoic acid]	31	1		
O=C(O)CCN1CCC(C(=O)N2CCC3(CC2)CCN(c2ccncc2)C3)CC1 [Example 49, 3-(4-{[2-(4-pyridyl)-2,8-diazaspiro[4.5]dec-8-yl]carbonyl}piperidino) propanoic acid]	1010	17		
O=C(O)CCN1CCN(C(=O)N2CCC3(CCN(c4ccncc4)CC3)C2)CC1=O [Example 25, 3-(2-oxo-4-((8-(4-pyridyl)-2,8-diazaspiro[4.5]dec-2-yl)carbonyl)piperazino)propanoic acid]			8300	
O=C(O)CC(=O)N1CCC(C(=O)N2CCC3(CC2)CCN(c2ccncc2)CC3)CC1 [Example 12, 3-oxo-3-(4-{[9-(4-pyridyl)-3,9-diazaspiro[5.5]undec-3-yl]carbonyl}piperidino)propanoic acid]	1770	39		
O=C(O)CN1CCC(N2CCC3(CCN(c4ccncc4)C3)CC2)CC1 [Example 32, 2-{4-(2-(4-pyridyl)-2,8-diazaspiro[4.5]dec-8-yl]piperidino}acetic acid]			9500	
O=C(O)CS(=O)(=O)N1CCC(C(=O)N2CCC3(CC2)CCN(c2ccncc2)C3)CC1 [Example 51, ethyl 2-[(4-{[2-(4-pyridyl)-2,8-diazaspiro[4.5]dec-8-yl]carbonyl}-piperidino)sulfonyl]acetic acid]		94	938	
O=C(O)CCCCC(=O)N1CCC2(CCN(c3ccncc3)CC2)C1 [Example 22, 6-oxo-6-(8-(4-pyridyl)-2,8-diazaspiro[4.5]dec-2-yl)hexanoic acid]			> 80000	
CCCCS(=O)(=O)N[C@@H](CCC(=O)N1CCC2(CC1)CCN(c1ccncc1)CC2)C(=O)O [Example 6, 2(S)-2-[(butylsulfonyl)amino]-5-oxo-5-[9-(4-pyridyl)-3,9-diazaspiro [5.5]undec-3-yl]pentanoic acid]	790			
O=C(O)CN1CCC(CC(=O)N2CCC3(CC2)CCN(c2ccncc2)C3)CC1 [Example 33, 2-(4-{2-oxo-2-[2-(4-pyridyl)-2,8-diazaspiro[4.5]dec-8-yl]ethyl}piperidino)acetic acid]			80000	
O=C(O)COC1CCN(CC(=O)N2CCC3(CC2)CCN(c2ccncc2)C3)CC1 [Example 50, 2-[(1-{2-oxo-2-[2-(4-pyridyl)-2,8-diazaspiro[4.5]dec-8-yl]ethyl}-4-piperidyl)oxyl]acetic acid]	80000			
CC(CNC(=O)C1CCC2(CC1)CCN(c1ccncc1)CC2)CC(=O)O (stereo not shown) [Example 18, 3-methyl-4-({[3-(4-pyridyl)-3-azaspiro[5.5]undec-9-yl]carbonyl}amino) butanoic acid]				3000
